Measurements as given in US11066414B2, “Cot modulators and methods of use thereof” (Gilead Sciences, Inc., priority 2015, dated 2021).

Columns and labels:
[1] = system: TNFα; assay: Cot Monocyte TNFα Cell Based Assay; conditions: Homo sapiens, Monocyte, read-out: EC50 TNF, LPS-stimulated human monocytes, TNFα
[2] = biological target: Human Cot (Homo sapiens (Human), UniProt P41279); assay: High Throughput Cot Biochemical Assay; conditions: IC50 HTRF, Cot HTRF (TR-FRET) biochemical assay
Sequence of Human Cot (P41279 30-397): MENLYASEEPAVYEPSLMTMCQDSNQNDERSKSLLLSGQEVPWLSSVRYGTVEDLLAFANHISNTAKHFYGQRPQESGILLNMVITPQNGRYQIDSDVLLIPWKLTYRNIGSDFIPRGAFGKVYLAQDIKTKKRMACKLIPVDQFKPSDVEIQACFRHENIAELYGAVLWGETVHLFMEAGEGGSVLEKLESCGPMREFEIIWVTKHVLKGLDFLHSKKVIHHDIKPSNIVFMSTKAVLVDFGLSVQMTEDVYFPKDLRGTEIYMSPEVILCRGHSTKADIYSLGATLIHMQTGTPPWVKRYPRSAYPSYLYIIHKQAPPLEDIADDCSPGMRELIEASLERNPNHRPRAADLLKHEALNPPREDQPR

| EC50 [1] [µM] | IC50 [2] [µM] | Structure (SMILES) |
| --- | --- | --- |
| 0.067 | 0.003 | CC(C)(C)CNc1c(C#N)cnc2c(Cl)cc(N[C@H](c3cn(C4(C#N)CC4)nn3)c3cccc4ncsc34)cc12 [Example 415, (S)-6-((benzo[d]thiazol-7-yl(1-(1-cyanocyclopropyl)-1H-1,2,3-triazol-4-yl)methyl)amino)-8-chloro-4-(neopentylamino)quinoline-3-carbonitrile] |
| 0.124 | 0.002 | CC(C)(C)CNc1c(C#N)cnc2c(Cl)cc(N[C@H](c3cn(C4(C(N)=O)CC4)nn3)c3cccc4ncsc34)cc12 [Example 416, (S)-1-(4-(benzo[d]thiazol-7-yl((8-chloro-3-cyano-4-(neopentylamino)quinolin-6-yl)amino)methyl)-1H-1,2,3-triazol-1-yl)cyclopropane-1-carboxamide] |
| 0.218 | 0.009 | CC(C)(C)CNc1c(C#N)cnc2c(Cl)cc(N[C@H](c3cn(C4(C(F)(F)F)CC4)nn3)c3cccc4ncsc34)cc12 [Example 417, (S)-6-((benzo[d]thiazol-7-yl(1-(1-(trifluoromethyl)cyclopropyl)-1H-1,2,3-triazol-4-yl)methyl)amino)-8-chloro-4-(neopentylamino)quinoline-3-carbonitrile] |
| 0.045 | 0.002 | CC(C)(C)CNc1c(C#N)cnc2c(Cl)cc(N[C@H](c3cn(C4CC4)nn3)c3cccc4ncsc34)cc12 [Example 418, (S)-6-((benzo[d]thiazol-7-yl(1-cyclopropyl-1H-1,2,3-triazol-4-yl)methyl)amino)-8-chloro-4-(neopentylamino)quinoline-3-carbonitrile] |
| 0.049 | 0.003 | CC(C)(C)CNc1c(C#N)cnc2c(Cl)cc(N[C@H](c3cn(C4CCN(C(C)(C)C)CC4)nn3)c3cccc4ncsc34)cc12 [Example 419, (S)-6-((benzo[d]thiazol-7-yl(1-(1-(tert-butyl)piperidin-4-yl)-1H-1,2,3-triazol-4-yl)methyl)amino)-8-chloro-4-(neopentylamino)quinoline-3-carbonitrile] |
| 0.1 | 0.004 | CC(C)(C)CNc1c(C#N)cnc2c(Cl)cc(N[C@H](c3cn(C4(C(F)F)CC4)nn3)c3cccc4ncsc34)cc12 [Example 421, (S)-6-((benzo[d]thiazol-7-yl(1-(1-(difluoromethyl)cyclopropyl)-1H-1,2,3-triazol-4-yl)methyl)amino)-8-chloro-4-(neopentylamino)quinoline-3-carbonitrile] |
| 0.057 | 0.002 | CC(C)(C)CNc1c(C#N)cnc2c(Cl)cc(N[C@H](c3cn(C4CC4)nn3)c3cccn4nccc34)cc12 [Example 422, (S)-8-chloro-6-(((1-cyclopropyl-1H-1,2,3-triazol-4-yl)(pyrazolo[1,5-a]pyridin-4-yl)methyl)amino)-4-(neopentylamino)-quinoline-3-carbonitrile] |
| 0.095 | 0.002 | Cn1cc2c([C@H](Nc3cc(Cl)c4ncc(C#N)c(NCC(C)(C)C)c4c3)c3cn(C4CC4)nn3)cccc2n1 [Example 426, (S)-8-chloro-6-(((1-cyclopropyl-1H-1,2,3-triazol-4-yl)(2-methyl-2H-indazol-4-yl)methyl)amino)-4-(neopentylamino)-quinoline-3-carbonitrile] |
| 0.289 | 0.005 | CC(C)(C)CNc1c(C#N)cnc2c(Cl)cc(N[C@H](c3cn(C4CC4)nn3)c3ccc(F)nc3Cl)cc12 [Example 436, (S)-8-chloro-6-(((2-chloro-6-fluoro-pyridin-3-yl)(1-cyclopropyl-1H-1,2,3-triazol-4-yl)methyl)amino)-4-(neo-pentylamino)quinoline-3-carbonitrile] |
| 0.082 | 0.002 | CC(C)(C)CNc1c(C#N)cnc2c(Cl)cc(N[C@H](c3cn(C4CC4)nn3)c3cccc4ncccc34)cc12 [Example 437, (S)-8-chloro-6-(((1-cyclopropyl-1H-1,2,3-triazol-4-yl)(quinolin-5-yl)methyl)amino)-4-(neopentylamino)quinoline-3-carbonitrile] |

Continued, compound first:

| Structure (SMILES) | EC50 [1] [µM] | IC50 [2] [µM] |
| --- | --- | --- |
| CC[C@@H](Nc1c(C#N)cnc2c(C#N)cc(N[C@H](c3cn(C4CC4)nn3)c3cccc4ncsc34)cc12)c1ccccc1 [Example 411, 6-(((S)-benzo[d]thiazol-7-yl(1-cyclopropyl-1H-1,2,3-triazol-4-yl)methyl)amino)-4-(((R)-1-phenylpropyl)amino)quinoline-3,8-dicarbonitrile] | 0.076 | 0.005 |
| CC[C@@H](Nc1c(C#N)cnc2c(C#N)cc(N[C@H](c3cn(C4(C(F)(F)F)CC4)nn3)c3cccc4ncsc34)cc12)c1ccccc1 [Example 412, 6-(((S)-benzo[d]thiazol-7-yl(1-(1-(trifluoromethyl)-cyclopropyl)-1H-1,2,3-triazol-4-yl)methyl)amino)-4-(((R)-1-phenylpropyl)amino)quinoline-3,8-dicarbonitrile] | 0.157 | 0.007 |
| [2H]C(Nc1cc(Cl)c2ncc(C#N)c(N[C@H](CCC#N)c3ccccc3)c2c1)(c1cn(C2(C(F)(F)F)CC2)nn1)c1ccc(F)nc1C (stereo partly drawn) [Example 413, 8-chloro-4-(((R)-3-cyano-1-phenyl-propyl)amino)-6-(((6-fluoro-2-methyl-pyridin-3-yl)(1-(1-(trifluoromethyl)-cyclopropyl)-1H-1,2,3-triazol-4-yl)methyl-d)amino)quinoline-3-carbonitrile] | 0.044 | 0.004 |
| N#CCC[C@@H](Nc1c(C#N)cnc2c(C#N)cc(N[C@H](c3cn(C4CC4)nn3)c3csc4c3CCN(C3COC3)C4)cc12)c1ccccc1 [Example 414, 4-(((R)-3-cyano-1-phenylpropyl)amino)-6-(((S)-(1-cyclopropyl-1H-1,2,3-triazol-4-yl)(6-(oxetan-3-yl)-4,5,6,7-tetrahydro-thieno[2,3-c]pyridin-3-yl)methyl)amino)-quinoline-3,8-dicarbonitrile] | 0.035 | 0.001 |
| CC(C)(C)CNc1c(C#N)cnc2c(C#N)cc(N[C@H](c3cn(C4CCN(C(C)(C)C)CC4)nn3)c3cccc4ncsc34)cc12 [Example 420, (S)-6-((benzo[d]thiazol-7-yl(1-(1-(tert-butyl)piperidin-4-yl)-1H-1,2,3-triazol-4-yl)methyl)amino)-4-(neopentyl-amino)quinoline-3,8-dicarbonitrile] | 0.025 | 0.002 |
| [2H][C@](Nc1cc(Cl)c2ncc(C#N)c(NCC(C)(C)C)c2c1)(c1ccc(F)nc1)c1cn(CC(=O)NS(C)(=O)=O)nn1 [Example 425, (S)-2-(4-(((8-chloro-3-cyano-4-(neopentylamino)quinolin-6-yl)amino)(6-fluoropyridin-3-yl)methyl-d)-1H-1,2,3-triazol-1-yl)-N-(methyl-sulfonyl)acetamide] | 1 | 0.007 |
| Cc1nc2cccc([C@H](Nc3cc(C#N)c4ncc(C#N)c(NCC(C)(C)C)c4c3)c3cn(C4CC4)nn3)c2s1 [Example 427, (S)-6-(((1-cyclopropyl-1H-1,2,3-triazol-4-yl)(2-methylbenzo[d]thiazol-7-yl)methyl)amino)-4-(neopentylamino)-quinoline-3,8-dicarbonitrile] | 0.041 | 0.002 |
| Cc1nc2cccc([C@H](Nc3cc(C#N)c4ncc(C#N)c(NCC(C)(C)C)c4c3)c3cn(C4(C(F)(F)F)CC4)nn3)c2s1 [Example 430, (S)-6-(((2-methylbenzo[d]thiazol-7-yl)(1-(1-(trifluoromethyl)cyclopropyl)-1H-1,2,3-triazol-4-yl)methyl)amino)-4-(neopentylamino)quinoline-3,8-dicarbonitrile] | 0.214 | 0.005 |
| Cc1nc(F)ccc1[C@H](Nc1cc(Cl)c2ncc(C#N)c(NCC(C)(C)C)c2c1)c1cn(C2(C(F)(F)F)CC2)nn1 [Example 432, (S)-8-chloro-6-(((6-fluoro-2-methyl-pyridin-3-yl)(1-(1-(trifluoromethyl)-cyclopropyl)-1H-1,2,3-triazol-4-yl)methyl)amino)-4-(neopentylamino)-quinoline-3-carbonitrile] | 0.089 | 0.006 |
| CC(C)(C)CNc1c(C#N)cnc2c(C#N)cc(N[C@H](c3cn(C4CC4)nn3)c3csc4c3CCN(C3COC3)C4)cc12 [Example 433, (S)-6-(((1-cyclopropyl-1H-1,2,3-triazol-4-yl)(6-(oxetan-3-yl)-4,5,6,7-tetrahydrothieno[2,3-c]pyridin-3-yl)methyl)amino)-4-(neopentylamino)-quinoline-3,8-dicarbonitrile] | 0.065 | 0.001 |
| CC(C)(C)CNc1c(C#N)cnc2c(C#N)cc(N[C@H](c3cn(C4(C)CC4)nn3)c3cccc4ncsc34)cc12 [Example 435, (S)-6-((benzo[d]thiazol-7-yl(1-(1-methylcyclopropyl)-1H-1,2,3-triazol-4-yl)methyl)amino)-4-(neopentylamino)-quinoline-3,8-dicarbonitrile] | 0.024 | 0.001 |
| Cc1nc(F)ccc1[C@@H](Nc1cc(Cl)c2ncc(C#N)c(N[C@H](CCC#N)c3ccccc3)c2c1)c1cn(C2CC2)nn1 [Example 438, 8-chloro-4-(((R)-3-cyano-1-phenyl-propyl)amino)-6-(((R)-(1-cyclopropyl-1H-1,2,3-triazol-4-yl)(6-fluoro-2-methylpyridin-3-yl)methyl)amino)-quinoline-3-carbonitrile] | 1 | 0.473 |
| CC[C@@H](Nc1c(C#N)cnc2c(Cl)cc(N[C@H](c3cn(C4(C(F)(F)F)CC4)nn3)c3ccc(F)nc3C)cc12)c1ccccc1 [Example 440, 8-chloro-6-(((S)-(6-fluoro-2-methyl-pyridin-3-yl)(1-(1-(trifluoromethyl)-cyclopropyl)-1H-1,2,3-triazol-4-yl)methyl)amino)-4-(((R)-1-phenyl-propyl)amino)quinoline-3-carbonitrile] | 0.171 | 0.007 |
| CC(C)(C)CNc1c(C#N)cnc2c(S(C)(=O)=O)cc(N[C@H](c3cn(C4(C(F)(F)F)CC4)nn3)c3cccc4ncsc34)cc12 [Example 442, (S)-6-((benzo[d]thiazol-7-yl(1-(1-(trifluoromethyl)cyclopropyl)-1H-1,2,3-triazol-4-yl)methyl)amino)-8-(methyl-sulfonyl)-4-(neopentylamino)quinoline-3-carbonitrile] | 2.69 | 0.056 |
